The text below walks through data of patent publication US5153226A, “Acat inhibitors for treating hypocholesterolemia” (Warner-Lambert Company, priority 1990, dated 1992).

In test [1] the target is T1, acyl-CoA:cholesterol acyltransferase (ACAT) (Oryctolagus cuniculus, UniProt G1SFD9).
T1 construct: tissue preparation containing rabbit intestinal microsomes; from tissue; host or cells: rabbit intestinal microsomes
T1 sequence (G1SFD9 1-524): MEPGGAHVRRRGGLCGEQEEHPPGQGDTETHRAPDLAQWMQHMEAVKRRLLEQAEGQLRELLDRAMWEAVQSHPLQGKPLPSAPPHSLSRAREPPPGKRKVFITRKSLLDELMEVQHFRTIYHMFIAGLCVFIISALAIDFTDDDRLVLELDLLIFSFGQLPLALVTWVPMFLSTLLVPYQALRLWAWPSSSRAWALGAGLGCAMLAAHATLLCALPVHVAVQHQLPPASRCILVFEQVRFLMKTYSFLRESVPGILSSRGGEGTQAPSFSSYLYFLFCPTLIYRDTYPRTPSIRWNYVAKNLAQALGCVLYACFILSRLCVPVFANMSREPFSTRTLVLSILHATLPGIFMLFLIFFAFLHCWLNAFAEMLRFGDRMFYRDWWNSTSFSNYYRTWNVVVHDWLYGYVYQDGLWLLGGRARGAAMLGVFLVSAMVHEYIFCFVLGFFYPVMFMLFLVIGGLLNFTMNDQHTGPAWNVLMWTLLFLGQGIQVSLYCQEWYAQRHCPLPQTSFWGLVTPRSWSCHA
The test can be described thus: in vitro ACAT inhibition, acylation of cholesterol by oleic acid in tissue preparation containing rabbit intestinal microsomes. Format: biochemical. Particulars: concentration required to inhibit 50% […] of the enzyme. As for the experimental part: The ability of representative compounds of the present invention to inhibit ACAT was measured using an in vitro test more fully described in Field, F. J. and Salone, R. G., Biochemica et Biophysica 712: 557-570 (1982). The test assesses the ability of a test compound to inhibit the acylation of cholesterol by oleic acid by measuring the amount of radio-labeled cholesterol oleate formed from radiolabeled oleic acid in a tissue preparation containing rabbit intestinal microsomes.
The data appear in Table 1 where they are expressed as IC50 values; i.e. the concentration of test compound required to inhibit 50% […] of the enzyme.

In a further test the test system is cholesterol. The test can be described thus: in vivo screen APCC, cholesterol in rats fed PCC diet with cholic acid. Further details: species or system male Sprague-Dawley rats. Particulars: APCC rats dosed at 4 PM, PCC diet with 1% or 0.5% cholic acid overnight, blood cholesterol at 8 AM; dose not given. An excerpt:
In one in vivo screen, designated APCC, male Sprague-Dawley rats (200 to 225 g) were randomly divided into treatment groups and dosed at 4 PM with either vehicle (CMC/Tween) or suspensions of compounds in vehicle. The normal, chow diet was then replaced with the PCC diet (RR 740-02122) with either 1% or 0.5% cholic acid, as indicated. The rats consumed this diet ad libitum during the night and were sacrificed at 8 AM to obtain blood samples for cholesterol analysis using standard procedures (RR 740-02122). Statistical differences between mean cholesterol values for the same vehicle were determined using analysis of variance followed by Fisher's least significant test.

As a reminder, the IC50 is the concentration that inhibits the measured activity by half. High values mean weaker potency in that assay, low ones greater potency in that assay. `CC(C)c1cccc(C(C)C)c1NC(=O)CN(CC1(c2ccccc2)CCCC1)C(=S)Nc1ccccc1` [Example 10, N-[2,6-bis(1-Methylethyl)phenyl]-2-[[(phenylamino)thioxomethyl][(1-phenylcyclopentyl)methyl]amino]acetamide] gave a half-maximal inhibitory concentration (IC50) in test [1] of 0.1 µM. In addition, in the test with cholesterol, the “% Change (mg/dl)” value is -30%.
For `Cc1ccc(S(=O)(=O)N(CC(=O)Nc2c(C(C)C)cccc2C(C)C)CC2(c3ccccc3)CCCC2)cc1` [Example 14, N-[2,6-bis(1-Methylethyl)phenyl]-2-[[(4-methylphenyl)sulfonyl][(1-phenylcyclopentyl)methyl]amino]acetamide], the “% Change (mg/dl)” value in the test with cholesterol is on record as -24%.
The same measure, in the same setting: the result for `CC(C)c1cccc(C(C)C)c1NC(=O)CN(CC1(c2ccccc2)CCCC1)C(=O)Nc1ccccc1` [Example 11, N-(2,6-bis(1-Methylethyl)phenyl]-2-[[(phenylamino)carbonyl][(1-phenylcyclopentyl)methyl]amino]-acetamide] reads -3%.
As to `CC(C)c1cccc(C(C)C)c1NC(=O)[C@H](Cc1ccccc1)NC(=O)OC(C)(C)C` [Example 41, (S)-α-N-(2,6-Diisopropylphenyl)benzenepropanamide], in test [1], the IC50 came to 0.35 µM.
`CC(C)c1cccc(C(C)C)c1NC(=O)CNC(c1ccccc1)c1ccccc1` [Example 4, N-[2,6-bis(1-Methylethyl)phenyl]-2-[(diphenylmethyl)amino]acetamide] yielded an IC50 in test [1] of 0.055 µM. The “% Change (mg/dl)” value with cholesterol is recorded as -45%.
Consider `Cc1ccc(S(=O)(=O)N[C@@H](Cc2ccccc2)C(=O)Nc2c(C(C)C)cccc2C(C)C)cc1` [Example 52, (S)-N-[2,6-bis(1-Methylethyl)phenyl]-α-[[(4-methylphenyl)sulfonyl]amino]benzenepropanamide], for which inhibition in test [1] was half-maximal at 0.96 µM (IC50).
On the same count and under the same terms, to `CC(C)c1cccc(C(C)C)c1NC(=O)[C@H](Cc1ccc(O)cc1)NC(=O)OC(C)(C)C` [Example 21, (S)-1,1-Dimethylethyl[2-[[2,6-bis-(1-methylethyl)phenyl]amino]-1-[(4-hydroxyphenyl)-methyl]-2-oxoethyl]carbamate] belongs 1.05 µM.
